Experimental data as given in patent US9145436B2 (priority 2010, dated 2015).

Assays:
HeLa = test: Cytotoxicity of the substances (TC50), HeLa; type: cell-based; details: HeLa cells
Jurkat = test: Cytotoxicity of the substances (TC50), Jurkat; type: cell-based; details: Jurkat cells
HepG2 = test: Cytotoxicity of the substances (TC50), HepG2; type: cell-based; design: unit not given beside the values; details: HepG2 cells
hERG = target: T1, hERG (Homo sapiens, UniProt Q12809); test: hERG inhibition in Chinese hamster ovary cells expressing the hERG c-DNA (K+ currents); type: cell-based; details: CHO cells expressing hERG
T1 construct: expressed in transfected cells; host or cells: Chinese hamster ovary (CHO) cells
Experimental: A major drawback of macrocycles is the inhibition of cardiac ion channels and specifically the channel encoded by the hERG gene inhibition of which is associated with “long Q-T” syndrome in some patients. To determine risk of hERG inhibition, Compounds 2 and 3 were incubated with Chinese hamster ovary cells expressing the hERG c-DNA resulting in detectable K+ currents associated with hERG at the cell surface.

Ames test (mutagenicity) = type: cell-based; details: up to 800 μg/plate (approx. 70 μM); absence and presence of metabolically active liver extract
Experimental: The Ames test is well known in the art. To determine the mutagenic potential of compound 2, it was conducted up to a concentration of 800 μg/plate (approx. 70 μM, considering 20 ml medium in a petri dish).

collagen arthritis model = test: Collagen arthritis model; type: in vivo, Male DBA mice; details: administered prior to or at the start of arthritis; 2 to 40 μmol kg−1; vs vehicle
Experimental: The data are obtained using the collagen arthritis model. Male DBA mice (18-22 g) are subcutaneously injected at the tail base with bovine type II collagen (100 μL) on day 1 and day 21. Onset of arthritis occurs over the next 5 days. Treatments are typically selected from A) a mixture of a Compound such as Compound 2 (between 2 to 40 μmol kg^−1) and the vehicle which is typically 1% citratic acid in water or similar. The effect of treatment on arthritis is monitored daily by assessing body weight, paw thickness and qualitative evidence of arthritis (scored from 0 to 3, 0=no evidence of arthritis or inflammation, 3=frank swelling of the paw). At the end of qualitative assessment, animals are sacrificed for toxicological, histological and pathological analysis.

[1] = Toxicity on oral administration for 7 days; type: in vivo; details: orally as a suspension up to 400 μmole/kg/day for 7 days
Experimental: (§1) To determine the potential for toxic effects of compound 2 in higher animals, compound 2 was administered to bALBc mice orally as a suspension up to a dose of 400 μmole/kg/day for 7 days.

[2] = Exposure by LCMS analysis of organs; type: in vivo, bALBc mice
Experimental: as §1
Exposure to the compound was confirmed using LCMS analysis of organs. […] A mild increase in Compound 2 concentration relative the average bodily dose in liver and spleen is clear after 2 h. In kidney the increase appears later, after 24 h.

DSS induced colitis = test: Dextransulfate (DSS) model of inflammatory bowel disease; type: in vivo, female C57BLK6 mice; details: DSS 2.5% W/V in drinking water; relative to known compounds such as sulfasalazine
Text: Dextransulfate (DSS) is used to induce an inflammatory state in the gut of mice by providing it in the drinking water. In our model, DSS (ICN) was used at 2.5% W/V in drinking water for female C57BLK6 mice (ca. 20 g). Weight was monitored daily as were diarrhea, overall condition and occult blood. Depending on severity, animals were recovered at 5, 7 or 12 days after onset of DSS treatment, and colon and intestine material recovered for histological examination.

plasma TNFalpha = test: Liver inflammation induced by LPS, plasma TNFalpha; type: in vivo, Lewis rats; details: 10 or 50 mg/kg; LPS 4 mg/kg i.p.; relative to vehicle treated controls
Experimental: FIG. 12. Plasma TNFa production in Lewis rats in which liver damage is induced via injection of LPS (4 mg/kg), data are the mean of N=8 and are plotted with the 95% confidence interval.
Application of high doses of LPS, e.g. 4 mg/kg i.p. results in the induction of liver inflammation and necrosis. This is reflected in signs such as elevated plasma TNFalpha levels. […] Data are recorded in FIG. 12.

E. coli = test: Antibiotic dilution assay, E. coli; type: cell-based; details: Escherichia coli; liquid medium, OD600; read-out: Bacterial IC 50 (μM) E. Coli
Experimental: (§2) The antibiotic activity of the compounds was determined via antibiotic dilution assay. After filling 100 μl growth medium into all the wells of a 96 well plate, the compounds were diluted from 1 mM to 0.010 μM. The growth control wells contained growth medium instead of inhibitory agents. The inhibitory control contained Compound 3 (200 μM). Suspensions of E. coli and B. pumilus in growth medium with an approximate OD600 of 0.03-0.04 were added to the diluted compounds, incubated for 6-8 hours on the shaker at 750 rpm and 37° C. until the growth control had reached an OD600 of about 0.6-0.8. The OD600 was then determined on a standard plate reader.
(§3) Various analogs were compared in vitro to determine key properties. Antibacterial effect was determined in representative Gram negative (E. coli) and positive (S. aureus) organisms using the method of example 16. Effects on lung inflammation were compared using the method of example 32. BALF (Bronchoalveolar Lavage Fluid) TNFa levels are determined by ELISA. In vitro toxicity is determined by growth inhibition of Jurkat lymphocytes in DMEM medium as determined using Alamar Blue reaction. Effects on cytokine production are determined in J774 cells stimulated with either LPS (0.1 μg/mL) or medium from J774 cells stimulated for 24 h with 0.2 μg/mL LPS. Cytokines are determined by ELISA and expressed as % DMSO control at 50 μM inhibitor concentration.

S. aureus = test: Antibiotic dilution assay, S. aureus; type: cell-based; details: Staphylococcus aureus; liquid medium, OD600; read-out: Bacterial IC 50 (μM) S. Aureus
Experimental: as §2, §3

BALF TNFa = test: Airway inflammation by inhaled LPS, BALF TNFa by ELISA; type: in vivo, DBA or Swiss female mice; details: 20 μmol/kg i.n., 30 minutes prior to LPS challenge
Experimental: as §3
Airway inflammation is induced by inhalation of solutions containing bacterial LPS. 10 μg per mouse is provided intranasally in phosphate buffered saline. 90 minutes after challenge, bronchioalveolar lavage fluid is recovered from the lung using PBS (0.5 mL) injected into the lung via the trachea and frozen prior to analysis for cytokines by ELISA. TNFa is the primary cytokine measured. Compound 2 and other test substances are dissolved in 0.02% citric acid in water, and the pH of the resulting solution is set to 6.2. Compounds are administered 30 minutes prior to challenge either as 25 μL solutions for intranasal use, or as 125 μL volumes for p.o. application in 25 g DBA or Swiss female mice. The results of said interventions include reduction of lung and/or plasma cytokines. Example data are recorded in FIG. 13.

Jurkat lymphocytes = test: In vitro toxicity: growth inhibition of Jurkat lymphocytes, Alamar Blue; type: cell-based; details: DMEM medium
Experimental: as §3

[3] = test system: TNFa production in J774 cells; test: Cytokine production in stimulated J774 cells, TNFa (ELISA); type: cell-based; details: Normal (LPS 0.1 μg/mL)
Experimental: as §3

[4] = test system: GM_CSF production in J774 cells; test: Cytokine production in stimulated J774 cells, GM-CSF (ELISA); type: cell-based; details: Cond. (medium from J774 cells stimulated 24 h with 0.2 μg/mL LPS)
Experimental: as §3

[5] = test system: IL-10 production in J774 cells; test: Cytokine production in stimulated J774 cells, IL-10 (ELISA); type: cell-based; details: Normal (LPS 0.1 μg/mL)
Experimental: as §3

[6] = test system: IL-12 production in J774 cells; test: Cytokine production in stimulated J774 cells, IL-12 (ELISA); type: cell-based; details: Normal (LPS 0.1 μg/mL)
Experimental: as §3

T1 sequence (Q12809 whole entry): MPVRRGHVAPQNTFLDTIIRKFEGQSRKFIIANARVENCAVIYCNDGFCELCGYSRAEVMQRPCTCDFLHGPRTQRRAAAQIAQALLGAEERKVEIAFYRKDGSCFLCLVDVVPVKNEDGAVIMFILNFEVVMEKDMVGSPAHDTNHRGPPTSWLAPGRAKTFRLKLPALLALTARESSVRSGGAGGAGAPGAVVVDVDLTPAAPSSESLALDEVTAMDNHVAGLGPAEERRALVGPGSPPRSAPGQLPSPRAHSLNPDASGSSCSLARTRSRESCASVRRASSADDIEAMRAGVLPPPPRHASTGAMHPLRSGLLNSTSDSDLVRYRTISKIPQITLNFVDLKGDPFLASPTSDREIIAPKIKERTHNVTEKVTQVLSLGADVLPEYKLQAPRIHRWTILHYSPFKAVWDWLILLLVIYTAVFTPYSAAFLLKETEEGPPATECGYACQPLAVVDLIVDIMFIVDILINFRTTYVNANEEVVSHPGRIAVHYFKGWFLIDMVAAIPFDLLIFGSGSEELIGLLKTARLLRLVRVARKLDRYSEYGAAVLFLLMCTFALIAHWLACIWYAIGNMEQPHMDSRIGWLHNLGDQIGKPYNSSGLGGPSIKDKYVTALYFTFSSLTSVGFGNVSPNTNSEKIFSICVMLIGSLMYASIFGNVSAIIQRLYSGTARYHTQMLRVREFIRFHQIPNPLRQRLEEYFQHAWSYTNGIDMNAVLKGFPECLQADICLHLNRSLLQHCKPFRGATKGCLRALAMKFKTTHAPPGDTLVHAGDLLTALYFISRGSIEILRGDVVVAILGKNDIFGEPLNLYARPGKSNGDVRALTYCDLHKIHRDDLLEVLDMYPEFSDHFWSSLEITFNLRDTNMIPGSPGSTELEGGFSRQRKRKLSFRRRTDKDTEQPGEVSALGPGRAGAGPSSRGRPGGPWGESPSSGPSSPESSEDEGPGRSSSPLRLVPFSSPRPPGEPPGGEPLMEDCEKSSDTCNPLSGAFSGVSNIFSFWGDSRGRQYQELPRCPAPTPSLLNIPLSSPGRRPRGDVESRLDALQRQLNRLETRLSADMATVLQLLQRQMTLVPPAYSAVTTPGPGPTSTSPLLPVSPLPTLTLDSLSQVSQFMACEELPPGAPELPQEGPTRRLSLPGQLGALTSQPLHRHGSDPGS

## CC[C@H]1OC(=O)[C@H](C)C2(O)O[C@](C)(C[C@@H](C)CN(C)[C@H](C)[C@@H](O)[C@]1(C)O)[C@H](O[C@@H]1O[C@H](C)CC(N(C)C)[C@H]1O)[C@H]2C (some centres unmarked) [Compound 2]
HeLa
  TC50 HeLa: >100
Jurkat
  TC50 Jurkat: 40
HepG2
  TC50 HepG2: 90
hERG
  hERG inhibition, potency relative to Compound 3: less potent inhibitor than the commercially available Compound 3
Ames test (mutagenicity)
  mutagenic activity (Ames test): no mutagenic activity
Collagen arthritis model
  arthritis score: reductions in score
  loss in body weight associated with arthritis: reduces loss in body weight
  paw swelling: reductions in score, paw swelling
[1]
  gross toxic effect / weight gain: continued to gain weight during this period suggesting no gross toxic effect
[2]; kidney, liver and spleen, LCMS, oral dosing
  accumulation in organs: slightly accumulated in kidney, liver and spleen
[2]; within 24 h
  fraction of the initial value detectable in organs: more than 50%
DSS induced colitis
  diarrhea severity: reductions in diarrhea severity
  mortality: reduced mortality
  weight loss: protection against weight loss
Plasma TNFalpha
  plasma TNF levels: reduce plasma TNF levels relative to vehicle treated controls
E. coli
  IC50: 1000 µM
S. aureus
  IC50: 1340 µM
BALF TNFa
  BALF TNFa (% Vehicle) 20 μmol/kg i.n.: 75 % Vehicle
Jurkat lymphocytes
  Jurkat Cell toxicity Normal growth limit: 100 µM
[3]
  Cytokine production in J774 cells as % DMSO control, TNFa Normal 50 μM: 68 % DMSO control
[4]
  Cytokine production in J774 cells as % DMSO control, GM_CSF Cond. 50 μM: 160 % DMSO control
[5]
  Cytokine production in J774 cells as % DMSO control, IL-10 Normal 50 μM: 115 % DMSO control
[6]
  Cytokine production in J774 cells as % DMSO control, IL-12 Normal 50 μM: 42 % DMSO control
